According to patent US11214803B2, “Modulators of YAP1 expression” (Ionis Pharmaceuticals, Inc., priority 2019, dated 2022):

Assays:
Yap1 mRNA [1] = assay: Dose-dependent inhibition of human Yap1 in A-431 cells (Example 24, 11,000 cells per well, RTS36584, normalized to GAPDH); format: cell-based; settings: free uptake, 48 hours, RTS36584, normalized to GAPDH
Protocol: Modified oligonucleotides described in the studies above were tested at various doses in A-431 cells. Cultured A-431 cells at a density of 11,000 cells per well were treated using free uptake with modified oligonucleotides diluted to concentrations described in the tables below. After approximately 48 hours, Yap1 mRNA levels were measured as previously described using the Human Yap1 primer-probe set RTS36584. Yap1 mRNA levels were normalized to GAPDH content, as measured by primer probe set RTS104 (forward sequence […], designated herein as SEQ ID NO.: 17; reverse sequence […], designated herein as SEQ ID NO.: 18; probe sequence […], designated herein as SEQ ID NO.: 19). Results are presented in the tables below as percent control of the amount of Yap1 mRNA relative to untreated control cells (% UTC). IC50s were calculated using a linear regression on a log/linear plot of the data in excel.

Yap1 mRNA [2] = assay: Yap1 mRNA in SCC25 cells, RNA analysis (Example 25); format: cell-based, human; settings: free uptake, 48 hours, RTS4814, normalized to actin-beta
Protocol: Modified oligonucleotides described in the studies above were tested at various doses in squamous cell carcinoma cell SCC25. A control oligonucleotide 792169 (a 3-10-3 cET gapmer with a full phosphorothioate backbone, […], designated herein as SEQ ID No.: 2940; is not complementary to any known human gene) was also tested.
Cultured SCC25 cells at a density of 5,000 cells per well were treated using free uptake with modified oligonucleotides diluted to concentrations described in the tables below. After approximately 48 hours, Yap1 mRNA levels were measured as previously described using the Human Yap1 primer-probe set RTS4814. Yap1 mRNA levels were normalized to actin-beta content, as measured by primer probe set RTS5002 (forward sequence […], designated herein as SEQ ID NO.: 20; reverse sequence […], designated herein as SEQ ID NO.: 21; probe sequence […], designated herein as SEQ ID NO.: 22). Results are presented in the tables below as percent control of the amount of Yap1 mRNA relative to untreated control cells (% UTC).

Yap1 mRNA [3] = assay: Inhibition of human Yap1 mRNA in SNU449 hepatocellular carcinoma xenograft tumors (Example 26); format: in vivo; settings: SNU449 xenografts in NSG mice, 50 mg/kg twice weekly for five days, relative to PBS treated animals
How it was run: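 Female NSG mice bearing subcutaneous SNU449 xenografts (about 100 mm^3) dosed with modified oligonucleotides at 50 mg/kg twice weekly for five days, four per group. Tumour Yap1 mRNA measured by RT-qPCR, normalized to actin-beta, expressed as % of PBS-treated controls.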

[4] = Cynomolgus monkey tolerability, body and organ weight measurements (Example 34); format: in vivo; settings: cynomolgus monkeys, 35 mg/kg subcutaneously; for Heart weight / Kidney weight / Liver with gallbladder weight / Spleen weight: necropsy; for Terminal Body Weight: prior to necropsy
How it was run: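 Monkeys given modified oligonucleotides, observed twice daily, and euthanized on day 86, about 48 h after the last dose. Terminal body weight taken before necropsy; organ weights measured.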

[5] = Cynomolgus monkey tolerability, pro-inflammatory proteins analysis, Complement C3 and CRP (Example 34); format: in vivo; settings: cynomolgus monkeys, 35 mg/kg subcutaneously; for CRP: day 44
How it was run: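 Inflammatory effects of oligonucleotides in cynomolgus monkeys were assessed using blood samples taken after an overnight fast. About 0.8 mL of blood per animal went into tubes without anticoagulant so serum could be separated. Complement C3 was measured on a Toshiba 120 FR NEO chemistry analyzer. C-Reactive Protein was measured alongside the liver-function clinical chemistry parameters.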

[6] = Cynomolgus monkey tolerability, coagulation (Example 34); format: in vivo; settings: cynomolgus monkeys, 35 mg/kg subcutaneously, day 44
Protocol: To evaluate effect of Ionis modified oligonucleotides on coagulation in cynomolgus monkeys, blood samples of approximately 0.9 mL were collected from each of the available study animals on day 44. The samples were collected in tubes containing 3.2% sodium citrate. Coagulation parameters tested include Activated partial thromboplastin time (APTT), prothrombin time (PT) and Figrinogen (FIB).

[7] = Cynomolgus monkey tolerability, urine analysis (Example 34); settings: cynomolgus monkeys, 35 mg/kg subcutaneously, day 44
[8] = Cynomolgus monkey tolerability, kidney and liver function markers (Example 34); settings: cynomolgus monkeys, 35 mg/kg subcutaneously, day 44

Substance | Yap1 mRNA, % UTC (Yap1 mRNA [1]; 0.002 μM) [% UTC] | Yap1 mRNA, % UTC (Yap1 mRNA [1]; 0.008 μM) [% UTC] | Yap1 mRNA, % UTC (Yap1 mRNA [1]; 0.04 μM) [% UTC] | Yap1 mRNA, % UTC (Yap1 mRNA [1]; 0.2 μM) [% UTC] | Yap1 mRNA, % UTC (Yap1 mRNA [1]; 1 μM) [% UTC] | Yap1 mRNA, % UTC (Yap1 mRNA [2]; 0.04 μM) [% UTC] | Yap1 mRNA, % UTC (Yap1 mRNA [2]; 0.2 μM) [% UTC] | Yap1 mRNA, % UTC (Yap1 mRNA [2]; 1 μM) [% UTC] | Yap1 mRNA, % UTC (Yap1 mRNA [2]; 5 μM) [% UTC] | Yap1 mRNA in tumors, % control (Yap1 mRNA [3]) [% control] | Heart weight [4] [g] | Kidney weight [4] [g] | Liver with gallbladder weight [4] [g] | Spleen weight [4] [g] | Terminal Body Weight [4] [g] | Complement C3 ([5]; Day 42 (pre-dose)) [mg/dL] | Complement C3 ([5]; day 42 (24 hr post-dose)) [mg/dL] | CRP [5] [mg/L] | APTT [6] [s] | FIB [6] [mg/dL] | also measured
1198831 (CACTTTTACATTAGGA; chemically modified gapmer, further chemistry not given here) [compound 1198831] | 2 | 6 | 28 | 72 | 83 | 63 | 36 | 16 | 14 | 67 | 11 | 14 | 65 | 4 | 2788 | 81 | 81 | 1.1 | 18 | 209 | PT [6]: 10 s; UALB [7]: 0.1 mg/dL; UCRE [7]: 46 mg/dL; UTP [7]: 13 mg/dL; ALB [8]: 3.9 g/dL; ALP [8]: 1096 IU/L; ALT [8]: 48 IU/L; AST [8]: 63 IU/L; BUN [8]: 26 mg/dL; CREA [8]: 0.7 mg/dL; GGT [8]: 65 IU/L; GLO [8]: 2.8 g/dL; GLU [8]: 73 mg/dL; HDL [8]: 108 mg/dL; LDL [8]: 63 mg/dL; TBIL [8]: 0.3 mg/dL; TG [8]: 22 mg/dL; TP [8]: 6.7 g/dL
1198623 (CTAAGTAAGGTTTCCC; modified gapmer, further chemistry not given here) [compound 1198623] | 2 | 5 | 28 | 72 | 96 | 61 | 31 | 15 | 10 | 60 | 9 | 13 | 62 | 3 | 2790 | 105 | 101 | 2.0 | 17 | 229 | PT [6]: 10 s; UALB [7]: 0.2 mg/dL; UCRE [7]: 44 mg/dL; UTP [7]: 10 mg/dL; ALB [8]: 4.2 g/dL; ALP [8]: 916 IU/L; ALT [8]: 50 IU/L; AST [8]: 47 IU/L; BUN [8]: 26 mg/dL; CREA [8]: 0.8 mg/dL; GGT [8]: 59 IU/L; GLO [8]: 3.0 g/dL; GLU [8]: 70 mg/dL; HDL [8]: 87 mg/dL; LDL [8]: 50 mg/dL; TBIL [8]: 0.2 mg/dL; TG [8]: 34 mg/dL; TP [8]: 7.2 g/dL
